From patent publication US4772587A, “Dipeptide derivative of fatty acid” (Suntory Limited, priority 1985, dated 1988)
Residues, ends and D or L forms follow the SMILES beside them. *: point of attachment. Oleoyl = CCCCCCCC/C=C\CCCCCCCC(=O)*

Legend:
[1] = system: ddY strain male mice; experiment: Anti-hypoxia action (survival time in desiccator evacuated to 180 mmHg); assay type: in vivo; settings: for No. of survival/used (Drug): 30 minutes before evacuation to 180 mmHg
Description: The compounds of the present invention were checked for their anti-hypoxia action in ddY strain male mice (body weight: 25-34 g). Each of the treated groups consisted of 7 to 10 mice. Test samples were prepared by adding 2 to 3 drops of Tween 80® to physiological saline and suspending the respective compounds in the saline. The so conditioned test samples were administered (0.1 m 10 g) to each of the mice used.
At 30 minutes after the administration, each of the mice was placed in a desiccator having a volume of 1 l, and the desiccator was evacuated to 180 mmHg using a vacuum pump. The period of time from the start of the evacuation until the arrest of breathing was defined as Survival Time (minute).
When a mouse survived for 15 minutes or more, the survival time was recorded as being 15 minutes. Student's t-test was employed for significance analysis.

[2] = biological target: prolyl endopeptidase (Elizabethkingia meningoseptica, UniProt P27028); experiment: Measurement of anti-prolyl endopeptidase activity (decomposition of Z-glycyl-proline-β-naphthylamide); assay type: biochemical; settings: substrate Z-glycyl-proline-β-naphthylamide, phosphate buffer pH 7.0
prolyl endopeptidase, sequence (P27028 21-705): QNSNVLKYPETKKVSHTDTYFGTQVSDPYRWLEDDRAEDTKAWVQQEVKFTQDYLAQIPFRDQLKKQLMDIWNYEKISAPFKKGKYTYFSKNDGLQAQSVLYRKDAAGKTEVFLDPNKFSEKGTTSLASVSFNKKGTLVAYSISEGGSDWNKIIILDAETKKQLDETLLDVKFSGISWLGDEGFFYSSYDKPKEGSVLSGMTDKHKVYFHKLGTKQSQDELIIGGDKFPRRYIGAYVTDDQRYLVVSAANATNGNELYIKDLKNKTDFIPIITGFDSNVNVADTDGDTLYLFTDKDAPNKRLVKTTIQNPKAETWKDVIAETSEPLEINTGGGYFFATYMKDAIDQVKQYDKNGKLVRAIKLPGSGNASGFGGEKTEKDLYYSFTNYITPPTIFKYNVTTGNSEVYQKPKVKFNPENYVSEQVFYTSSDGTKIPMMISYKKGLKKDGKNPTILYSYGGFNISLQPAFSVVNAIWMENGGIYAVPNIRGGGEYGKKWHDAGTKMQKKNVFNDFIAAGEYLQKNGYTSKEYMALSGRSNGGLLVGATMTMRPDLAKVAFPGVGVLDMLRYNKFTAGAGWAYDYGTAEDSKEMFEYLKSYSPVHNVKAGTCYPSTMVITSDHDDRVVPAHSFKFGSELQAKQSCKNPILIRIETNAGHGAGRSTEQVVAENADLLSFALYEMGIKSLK
Description: The method of Yoshimoto and Tsuru (T. Yoshimoto and D. Tsuru, Agr. Biol. Chem. 42, 2417, 1978) was used to measure the anti-prolyl endopeptidase activities of several compounds of the present invention. A mixture of 0.0025M Z-glycyl-proline-β-naphthylamide (0.25 ml), 0.1M phosphate buffer (pH, 7.0; 0.99 ml) and a solution of a particular anti-prolyl endopeptidase compound (0.01 ml) was incubated in a test tube at 37° C. for 3 minutes. Thereafter, 0.1 ml of a solution of prolyl endopeptidase (0.2 U/ml) was added and the mixture was heated at 35° C. for 10 minutes. After the reaction, 2.0 ml of Triton X-100 in 1M acetate buffer (pH, 4.0) was added to the reaction mixture until the final concentration of the surfactant was 10%. The mixture was left at room temperature for 15 minutes and the absorbance (a) at 410 nm was measured.
A sample for blind test was prepared by using the buffer instead of the anti-prolyl endopeptidase compound and its absorbance (b) was also measured. The percent inhibition of prolyl endopeptidase was calculated by the formula: ((b-a)/b)×100, and the amount of a specific compound to achieve 50% inhibition (IC50) was determined.

[3] = system: experimental amnesia caused in rats by scopolamine; experiment: Preventive effect against experimental amnesia caused in rats by scopolamine (passive avoidance learning); assay type: in vivo, Wister male rats; settings: administered orally (so in the source) in an amount of 0.025 mg/kg
[4] = system: experimental amnesia caused in rats by scopolamine; experiment: as above; assay type: in vivo, Wister male rats; settings: sample 25 μg/kg i.p.; scopolamine 3 mg/kg i.p. after learning
Description: Several of the anti-prolyl endopeptidase compounds of the present invention were checked for their ability to prevent the inhibition of long-term memory fixation by scopolamine. Solutions of physiological saline (0.3 ml) that contained selected compounds of the present inventions in varying amounts ([…], 0.25 mg, 0.1 mg, 0.025 mg and 0.010 mg/kg) were administered intraperitoneally once a day to Wister male rats (100-120 g). One hour after the administration, electric shocks (1.7 mA) were applied to the rats so that they would acquire passive avoidance learning. Immediately thereafter, scopolamine was administered intraperitoneally to each rat in an amount of 3 mg per kg of body weight.
The result of the test was assessed both 24 hours and 48 hours after the administration of scopolamine. The number of amnesic rats and of sound rats was counted for each of the control group (rats to which the test compounds had not been administered but to which only scopolamine and physiological saline had been administered intraperitoneally and the treated group (rats to which both the test compound and scopolamine had been administered). The results are shown in Table 3.

[5] = Solubility in organic solvents; assay type: physicochemical
Excerpt: All the compouds in Table 1 are oils which are soluble in CCl4, ether, CHCl3, CH2 Cl2, AcOEt and MeOH.

Row | SMILES | Survival time Ratio (Drug/Control) ([1]; 1 mg/kg i.p.) | No. of survival/used (Drug) ([1]; 1 mg/kg i.p.) | Survival time (Mean ± S.E.), Drug ([1]; 1 mg/kg i.p., p < 0.05 vs control) [mini] | Survival time Ratio (Drug/Control) ([1]; 10 mg/kg i.p.) | No. of survival/used (Drug) ([1]; 10 mg/kg i.p.) | Survival time (Mean ± S.E.), Drug ([1]; 10 mg/kg i.p., p < 0.1 vs control) [mini] | IC50 (amount of compound to achieve 50% inhibition) [2] [ng/test tube] | anti-amnesic action (in words) [3] | Avoidance time 24 hrs. later [4] [s] | Avoidance time 48 hrs. later [4] [s] | No. of amnesic rats/No. of rats tested [4] | Percentage amnesia [4] [%] | solubility in benzene [5]
1 | CCCCCCCC/C=C\CCCCCCCC(=O)N[C@@H](Cc1ccccc1)C(=O)N1CCC[C@H]1C=O [SUAM 1212, oleoyl-Phe-Pro-CHO] (Oleoyl-Phe-Pro-aldehyde) | 1.27 | 0/7 | 2.94 ± 0.27 | 1.28 | 0/7 | 2.89 | 0.4 | strong anti-amnesic action | 300 | 285 | 0/10 | 0 | 
2 | CCCCCCCC/C=C\CCCCCCCC(=O)NC(Cc1ccccc1)C(=O)N1CCCC1C(=O)OC (stereo not drawn) [SUAM 1194, oleoyl-Phe-Pro-OMe] (Oleoyl-Phe-Pro-OMe; configuration not given here) |  |  |  |  |  |  |  |  |  |  |  |  | soluble in benzene
